From PMC3274548, “Toward New Therapeutics for Skin and Soft Tissue Infections: Propargyl-Linked Antifolates Are Potent Inhibitors of MRSA and Streptococcus pyogenes” (PLoS ONE, 2012)
≈ marks a conversion by molar mass, not a printed value. Where two headings read alike, the source gives them in different places.

What was measured:
[1] = tested on: Streptococcus pyogenes; assay: MIC, broth microdilution with Alamar Blue; format: cell-based; settings: for Selectivity S. pyogenes: IC50 (MCF10)/MIC (pathogen), both values in µM
Description: (§1) Stock solutions of standard antibiotics and test compounds were made at 50 mM in DMSO. […] For susceptibility testing, 10 µL of glycerol stock was suspended in a 10 mL shake flask culture of chemically defined Isosensitest broth (Oxoid) supplemented with 2% w/v glucose. A sample of the shake flask culture was diluted to 1×10^6 cells/mL in media and added to 96-well test plates (100 µL per well) containing test compounds dispensed in DMSO (2 µL) using serial two-fold dilutions. After an incubation period (30°C) determined from the strain specific doubling time, a 0.03% w/v aqueous solution of resazurin (10 µL) was added and the plates were allowed to incubate; each well was then scored for dye reduction.

[2] = molecular target: T1, Human DHFR (Homo sapiens, UniProt P00374); assay: DHFR enzyme inhibition assay (NADPH oxidation, 340 nm); format: biochemical
T1 sequence (P00374 1-187): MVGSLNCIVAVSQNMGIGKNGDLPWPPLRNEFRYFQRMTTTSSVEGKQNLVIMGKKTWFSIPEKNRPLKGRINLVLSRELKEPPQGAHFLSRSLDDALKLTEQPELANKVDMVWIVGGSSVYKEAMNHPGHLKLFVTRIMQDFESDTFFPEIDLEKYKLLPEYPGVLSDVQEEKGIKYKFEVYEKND
Description: (§2) Enzyme inhibition assays were performed by monitoring the rate of NADPH oxidation by the DHFR enzyme at an absorbance of 340 nm over five minutes. Assays were performed in the presence of saturating concentrations of NADPH (100 µM) and initiated with dihydrofolate (1 mM). All assays were completed at 25°C in a buffer containing 20 mM TES pH 7.0, 50 mM KCl, 10 mM 2-mercaptoethanol, 0.5 mM EDTA and 1 mg/mL BSA. Inhibition was measured at least three times with inhibitor concentrations near the IC50 value and the average IC50 value is reported with a standard deviation.

[3] = tested on: MRSA (S.aureus 13709); assay: MIC, broth microdilution with Alamar Blue; format: cell-based, Staphylococcus aureus; settings: for Selectivity MRSA: IC50 (MCF10)/MIC (pathogen), both values in µM
Description: as §1

[4] = molecular target: S. pyogenes DHFR (Streptococcus pyogenes, UniProt Q9A091); assay: biochemical; format: biochemical; settings: for Selectivity (h/Sp): IC50 (human)/IC50 (pathogen); for IC50: S. pyogenes DHFR, average of at least three measurements, read-out: IC50 (nM) Sp
Description: (§3) S. aureus DHFR was cloned, expressed and purified as previously described. Briefly, the DHFR gene was inserted into vector pET41 with a His8 tag for purification. The protein was expressed in E. coli BL21 (DE3) cells. […] The protein was concentrated to ∼5 mg/mL. S. pyogenes DHFR was cloned using PCR from genomic DNA and inserted in vector pET-41.
as §2

[5] = molecular target: T2, S. aureus DHFR (Staphylococcus aureus, UniProt P0A017); assay: biochemical; format: biochemical; settings: for Selectivity (h/Sa): IC50 (human)/IC50 (pathogen)
T2 construct: the DHFR gene was inserted into vector pET41 with a His8 tag for purification; His8; made in house; host or cells: E. coli BL21 (DE3)
Description: as §3, §2

[6] = tested on: MCF-10 cells; assay: Mammalian cell toxicity (Alamar Blue); format: cell-based; settings: cytotoxicity, 4 h incubation, read-out: IC50 MCF-10
Description: Adherent cell lines were maintained in Eagle's Minimal Essential Media (Sigma-Aldrich, St. Louis, MO, USA) with 2 mM glutamine and Earle's Balanced Salt Solution (HyClone, Logan, UT, USA) adjusted to contain 1.5 g/L sodium bicarbonate, 0.1 mM non-essential amino acids, 1 mM sodium pyruvate and 10% fetal calf serum. Fetal calf serum used in these assays was lot matched throughout. […] Toxicity assays were conducted between passages 10–20. Target compound toxicity was measured by incubating the test compound with the cells for 4 h, washing the cells and finally treating the cells with Alamar Blue. After 12–24 h, the fluorescence of the reduced dye was measured. Fluorescence intensity as a function of test compound concentration was fit to the Fermi equation, using non-linear least squares regression analysis, to estimate IC50 values.

[7] = tested on: HepG2 cells; assay: Mammalian cell toxicity (Alamar Blue); format: cell-based; settings: Homo sapiens, cytotoxicity, 4 h incubation
Description: Fetal calf serum used in these assays was lot matched throughout. All cultures were maintained under a humidified 5% CO2 atmosphere at 37°C, had media refreshed twice weekly and were subcultured by trypsinization and resuspension at a ratio of 1∶5 each week. Toxicity assays were conducted between passages 10–20. Target compound toxicity was measured by incubating the test compound with the cells for 4 h, washing the cells and finally treating the cells with Alamar Blue. After 12–24 h, the fluorescence of the reduced dye was measured. Fluorescence intensity as a function of test compound concentration was fit to the Fermi equation, using non-linear least squares regression analysis, to estimate IC50 values.

[8] = Streptococcus pyogenes, 10% FCS, read-out: MIC S. pyogenes +FCS
[9] = Streptococcus pyogenes, 10% FCS, value in parentheses, read-out: MIC S. pyogenes +FCS
[10] = Streptococcus pyogenes, value in parentheses, read-out: MIC S. pyogenes
[11] = Streptococcus pyogenes, read-out: MIC S. pyogenes
[12] = Staphylococcus aureus, MRSA, 10% fetal calf serum, read-out: MIC MRSA +FCS
[13] = Staphylococcus aureus, MRSA, 10% fetal calf serum, value in parentheses, read-out: MIC MRSA +FCS
[14] = Staphylococcus aureus, MRSA, value in parentheses, read-out: MIC MRSA
[15] = Staphylococcus aureus, MRSA, read-out: MIC MRSA
[16] = value in parentheses, read-out: MIC S. pyogenes
[17] = value in parentheses, read-out: MIC MRSA
[18] = S. aureus DHFR, average of at least three measurements, read-out: IC50 (nM) Sa
[19] = human DHFR, average of at least three measurements, read-out: IC50 (nM) Human

T2 sequence (P0A017 whole entry): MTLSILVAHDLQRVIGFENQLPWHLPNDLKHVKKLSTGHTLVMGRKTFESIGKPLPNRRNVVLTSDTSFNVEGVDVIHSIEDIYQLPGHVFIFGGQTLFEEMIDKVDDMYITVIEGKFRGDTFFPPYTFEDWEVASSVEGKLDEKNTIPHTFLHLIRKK
S. pyogenes DHFR, sequence (Q9A091 entry or part of it): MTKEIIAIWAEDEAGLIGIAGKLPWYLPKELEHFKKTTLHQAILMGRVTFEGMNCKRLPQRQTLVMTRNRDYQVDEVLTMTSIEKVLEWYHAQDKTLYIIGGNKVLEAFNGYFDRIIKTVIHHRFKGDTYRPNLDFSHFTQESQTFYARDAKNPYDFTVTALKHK

CCc1nc(N)nc(N)c1C#CCc1cccc(-c2cncnc2)c1 [Compound 37]
Selectivity S. pyogenes [1]: >1,000 | MIC [1, 8]: 0.16 µg/mL | MIC [1, 9]: 0.5 µM | MIC [1, 10]: 0.5 µM | MIC [1, 11]: 0.16 µg/mL | IC50 [2]: 160 ± 13 nM | Selectivity MRSA [3]: >1,000 | MIC [3, 12]: 0.16 µg/mL | MIC [3, 13]: 0.5 µM | MIC [3, 14]: 0.5 µM | MIC [3, 15]: 0.16 µg/mL | Selectivity (h/Sp) [4]: 7 | IC50 [5]: 35 ± 1.1 nM | Selectivity (h/Sa) [5]: 5 | IC50 ([6]; Homo sapiens, MCF10): > 500000 nM

COc1cc(-c2ccc(C)cc2)cc(C(C)C#Cc2c(C)nc(N)nc2N)c1 (racemic) [Compound 2]
MIC S. pyogenes [1]: 0.024 µg/mL (≈ 0.0644 µM) | MIC [1, 16]: 0.064 µM | MIC MRSA [3]: 0.71 µg/mL (≈ 1.91 µM) | MIC [3, 17]: 2 µM | IC50 [4]: 350 ± 44 nM | IC50 [5, 18]: 410 ± 36 nM | IC50 [6]: 55000 nM

CCc1nc(N)nc(N)c1C#CC(C)c1cc(-c2ccccc2)ccc1OC (stereo not shown) [Compound 11]
IC50 [7]: 77000 nM | Selectivity S. pyogenes [1]: 27 | MIC [1, 8]: 6 µg/mL | MIC [1, 9]: 16 µM | MIC [1, 10]: 2 µM | MIC [1, 11]: 0.74 µg/mL | IC50 [2, 19]: 100 ± 10 nM | Selectivity MRSA [3]: 27 | MIC [3, 12]: 11.9 µg/mL | MIC [3, 13]: 32 µM | MIC [3, 14]: 2 µM | MIC [3, 15]: 0.74 µg/mL | Selectivity (h/Sp) [4]: 4 | Selectivity (h/Sa) [5]: 1.5 | IC50 [5, 18]: 67 ± 5.5 nM | IC50 ([6]; Homo sapiens, MCF10): 54000 nM

CCc1nc(N)nc(N)c1C#CCc1cc(-c2ccccc2)ccc1OC [Compound 7]
Selectivity S. pyogenes [1]: 4,187 | MIC [1, 10]: 0.016 µM | MIC [1, 11]: 0.006 µg/mL | IC50 [2, 19]: 300 ± 10 nM | Selectivity MRSA [3]: 67 | MIC [3, 14]: 1 µM | MIC [3, 15]: 0.18 µg/mL | Selectivity (h/Sp) [4]: 51 | Selectivity (h/Sa) [5]: 125 | IC50 [5, 18]: 2.4 ± 0.2 nM | fold improvement in potency against S. aureus DHFR ([5]; relative to compound 1): 18 fold | IC50 ([6]; Homo sapiens, MCF10): 67000 nM

CCc1nc(N)nc(N)c1C#CCc1cccc(-c2ccccc2)c1 [Compound 8]
MIC S. pyogenes [1]: 0.66 µg/mL (≈ 2.01 µM) | MIC S. pyogenes +FCS ([1]; 10% FCS): 2.6 µg/mL (≈ 7.92 µM) | MIC ([1]; 10% FCS, value in parentheses, read-out: MIC S. pyogenes +FCS): 8 µM | MIC [1, 16]: 2 µM | IC50 [2, 19]: 290 ± 36 nM | MIC MRSA [3]: 0.66 µg/mL (≈ 2.01 µM) | MIC MRSA +FCS ([3]; 10% fetal calf serum): 5.2 µg/mL (≈ 15.8 µM) | MIC ([3]; 10% fetal calf serum, value in parentheses, read-out: MIC MRSA +FCS): 16 µM | MIC [3, 17]: 2 µM | Selectivity (h/Sp) [4]: 11 | IC50 [4]: 26 ± 1.7 nM | Selectivity (h/Sa) [5]: 10 | IC50 [5, 18]: 28 ± 1.7 nM | IC50 [6]: 32000 nM
